Source: article PMC10636063, “Progesterone activation of β1-containing BK channels involves two binding sites” (Nature Communications, 2023)
Several values for one entry are separate records, joined by “and”; a condition that tells them apart may be missing. Equal entries are not always repeated.

Columns and labels:
[1] = test system: BK β4 subunit (KCNMB4 product); assay: Thermal unfolding (MST) of purified wt β4; format: binding; design: delta (Δ) of onset to inflection point: unit not given here
Description: (§1) BK channel-forming slo1 cDNA (cbv1 isoform; AY330293) was cloned from rat cerebral artery SM cells, and inserted into pcDNA3.1 vector as described. BK β1 cDNA (KCNMB1 product; NP_011452; FJ154955) were isolated from rat cerebral artery SM cells and cloned as described. β4 cDNA (KCNMB4; NP_055320; AY028605) were generously provided by Dr. Ligia Toro. CHO cells were transiently transfected with cbv1 ± β1-, or β4-carrying pcDNA3.1 using X-tremeGENE HP (Sigma-Aldrich). Mutations to β1/4 cDNAs were conducted by Genscript, with sequences being confirmed to be >99% identical to KCNMB1 product; NP_011452 or β4 KCNMB4; NP_055320; respectively. β1/4 and mutant constructs were flag-tagged (DYKDDDDK-tag) by Genscript services for subsequent immunoprecipitation and use in microscale thermophoresis studies.
(§2) Wt β1, wt β4 and mutant constructs were purified by immunoprecipitation using Dynabeads Protein G Kit (10007D by Invitrogen) and following the manufacturer’s instructions. […] The unfolding profile of a protein is a plot of its fluorescence signal against temperature. […] During the heating process, fluorescence is recorded at 330 and 350 nm. The resulting fluorescence ratio change is then analyzed for onset and inflection points. The temperature of onset and inflection is determined using built-in analysis function in Nanotemper PR.therm-control software. […]

β1W87F = target: T1, β1W87F (Rattus norvegicus, UniProt P97678, W87F); assay: Thermal unfolding (MST) of β1W87F; format: binding; details: 0.004 and 4.1 µM
T1 construct: FLAG (DYKDDDDK); made in house; host or cells: CHO cells, transient transfection, anti-flag immunoprecipitation
T1 sequence (P97678 whole entry W87F): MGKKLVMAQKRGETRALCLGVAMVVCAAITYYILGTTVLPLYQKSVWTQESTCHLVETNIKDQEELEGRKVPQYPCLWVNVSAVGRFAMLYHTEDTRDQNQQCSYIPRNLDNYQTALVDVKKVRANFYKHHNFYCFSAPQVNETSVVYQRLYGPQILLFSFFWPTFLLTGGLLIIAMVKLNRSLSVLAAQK
Description: as §1, §2

β1Y32F = target: T2, β1Y32F (Rattus norvegicus, UniProt P97678, Y32F); assay: Thermal unfolding (MST) of β1Y32F; format: binding
T2 construct: FLAG (DYKDDDDK); made in house; host or cells: CHO cells, transient transfection, anti-flag immunoprecipitation
T2 sequence (P97678 whole entry Y32F): as the sequence (P97678 whole entry W87F) above, with Y32F, F87W counted along it
Description: as §1, §2

cbv1+β1W87F = target: T3, cbv1+β1W87F (Rattus norvegicus, UniProt P97678, W87F); assay: Channel activity (NPo) in POPE/POPS bilayers, cbv1+β1W87F; format: biochemical
T3 construct: made in house; host or cells: CHO cells, transient transfection; sucrose-gradient membrane preparation
T3 sequence (P97678 whole entry W87F): as the sequence (P97678 whole entry W87F) above
T3 sequence (Q62976 1-1148 isoform Q62976-2 partner): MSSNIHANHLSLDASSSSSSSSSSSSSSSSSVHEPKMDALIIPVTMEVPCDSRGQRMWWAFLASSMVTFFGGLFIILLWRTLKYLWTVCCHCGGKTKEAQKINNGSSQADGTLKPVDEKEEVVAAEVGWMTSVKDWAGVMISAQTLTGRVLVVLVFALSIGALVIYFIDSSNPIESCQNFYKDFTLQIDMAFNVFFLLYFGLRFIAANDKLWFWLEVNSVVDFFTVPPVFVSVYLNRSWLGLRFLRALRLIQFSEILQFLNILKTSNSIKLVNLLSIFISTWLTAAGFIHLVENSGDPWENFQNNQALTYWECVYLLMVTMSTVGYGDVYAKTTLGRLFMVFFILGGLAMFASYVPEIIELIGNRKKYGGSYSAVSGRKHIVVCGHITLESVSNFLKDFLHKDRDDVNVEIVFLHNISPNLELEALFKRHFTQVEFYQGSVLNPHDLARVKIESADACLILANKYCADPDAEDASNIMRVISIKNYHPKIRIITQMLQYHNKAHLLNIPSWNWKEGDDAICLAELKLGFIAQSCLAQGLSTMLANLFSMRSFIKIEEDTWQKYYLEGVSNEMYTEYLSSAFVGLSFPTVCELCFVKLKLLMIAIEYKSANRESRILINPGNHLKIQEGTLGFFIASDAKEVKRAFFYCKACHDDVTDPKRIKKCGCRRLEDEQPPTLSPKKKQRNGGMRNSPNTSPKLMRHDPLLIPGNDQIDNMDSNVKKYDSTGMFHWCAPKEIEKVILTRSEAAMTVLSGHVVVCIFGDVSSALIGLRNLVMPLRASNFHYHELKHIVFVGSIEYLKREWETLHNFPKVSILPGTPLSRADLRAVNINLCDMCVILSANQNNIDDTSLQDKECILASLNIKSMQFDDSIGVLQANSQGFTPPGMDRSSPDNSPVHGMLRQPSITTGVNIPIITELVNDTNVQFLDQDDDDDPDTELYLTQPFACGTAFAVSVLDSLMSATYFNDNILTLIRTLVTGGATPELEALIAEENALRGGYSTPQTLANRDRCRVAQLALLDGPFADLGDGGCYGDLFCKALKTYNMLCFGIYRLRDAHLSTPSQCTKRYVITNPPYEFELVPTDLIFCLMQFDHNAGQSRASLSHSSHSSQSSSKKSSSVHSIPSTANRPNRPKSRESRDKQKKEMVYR
Description: (§3) BK channel-forming slo1 cDNA (cbv1 isoform; AY330293) was cloned from rat cerebral artery SM cells, and inserted into pcDNA3.1 vector as described. BK β1 cDNA (KCNMB1 product; NP_011452; FJ154955) were isolated from rat cerebral artery SM cells and cloned as described. β4 cDNA (KCNMB4; NP_055320; AY028605) were generously provided by Dr. Ligia Toro. CHO cells were transiently transfected with cbv1 ± β1-, or β4-carrying pcDNA3.1 using X-tremeGENE HP (Sigma-Aldrich). […]
(§4) Proteins for electrophysiological recordings in artificial lipid bilayers remained untagged. […] BK channel-mediated ionic current was recorded in planar lipid bilayers consisting of a POPE:POPS 3:1 (w/w) mixture. […]
(§5) Patch-clamp and bilayer data were analyzed using Clampfit 10.7 software (Molecular Devices). […] Drug-induced NPo changes were determined by comparing baseline NPo (i.e., NPo with the patch/cell perfused with bath solution) to the NPo from the same patch/cell exposed to the agent under study (DMSO/PROG/oxime) dissolved in bath solution. NPo and mean open time values were automatically calculated using Clampfit 10.7, the latter using a 50% threshold detection event.

cbv1+β1Y32F = target: T4, cbv1+β1Y32F (Rattus norvegicus, UniProt P97678, Y32F); assay: Channel activity (NPo) in POPE/POPS bilayers, cbv1+β1Y32F; format: biochemical
T4 construct: made in house; host or cells: CHO cells, transient transfection; sucrose-gradient membrane preparation
T4 sequence (P97678 whole entry Y32F): as the sequence (P97678 whole entry W87F) above, with Y32F, F87W counted along it
T4 sequence (Q62976 1-1148 isoform Q62976-2 partner): as the sequence (Q62976 1-1148 isoform Q62976-2 partner) above
Description: as §3, §4, §5

cbv1+β1Y42V = target: T5, cbv1+β1Y42V (Rattus norvegicus, UniProt P97678, Y42V); assay: Channel activity (NPo) in POPE/POPS bilayers, cbv1+β1Y42V; format: biochemical
T5 construct: made in house; host or cells: CHO cells, transient transfection; sucrose-gradient membrane preparation
T5 sequence (P97678 whole entry Y42V): as the sequence (P97678 whole entry W87F) above, with Y42V, F87W counted along it
T5 sequence (Q62976 1-1148 isoform Q62976-2 partner): as the sequence (Q62976 1-1148 isoform Q62976-2 partner) above
Description: as §3, §4, §5

Q: How did the “delta (Δ) of onset to inflection point” value ([1]; 10 μM PROG, individual records (Fig 1C)) turn out when `CC(=O)[C@H]1CC[C@H]2[C@@H]3CCC4=CC(=O)CC[C@]4(C)[C@H]3CC[C@]12C` [PROG, Progesterone] was run?
A: The value was 24.8 and 1.81 and 4.188 and 7.2 and 3.495 and 5.4.

Q: What about the “effect on thermal unfolding / binding” value ([1]; 4–10 μM) of the same compound?
A: The value was “exerted a similar effect on the thermal unfolding of β4”.

Q: And the “effect on thermal unfolding / binding” value (β1W87F)?
A: Its value is “loss of PROG binding”.

Q: And the binding (β1Y32F)?
A: The binding was “still bind PROG”.

Q: And the “action on channel activity (NPo)” value (cbv1+β1W87F; 10 µM, vs vehicle)?
A: The value was “effectively abolished PROG action”.

Q: And the “normalized NPo, time course Fig 4E” value (cbv1+β1W87F; cbv1+w87F prog, time 1 min (normalisation reference))?
A: The value was 1.

Q: And the “action on channel activity (NPo)” value (cbv1+β1Y32F; 10 µM, vs DMSO)?
A: The value was “significantly activated”.

Q: And the “channel activity (NPo) with prog, normalized” value (cbv1+β1Y32F; SFig3A, cbv1+y32f, individual bilayers)?
A: Its value is 3.7931 and 1.379 and 2.626 and 0.9886 and 1.589.

Q: And the “action on channel activity (NPo)” value (cbv1+β1Y42V; 10 µM, vs DMSO)?
A: Its value is “significantly activated”.

Q: What about the “channel activity (NPo) with prog, normalized” value (cbv1+β1Y42V; SFig3A, cbv1+y42v, individual bilayers) of the same compound?
A: The value was 1.4717 and 1.041 and 1.9292 and 1.306 and 1.182.
